Measurements published in patent US20110124505A1, “Agricultural Compositions” (COGNIS IP MANAGEMENT GMBH, priority 2008, published 2011).

Assay: Solubility tests of biocides in different solvents
Source text: The solubility of various herbicides, fungicides and insecticides has been tested using different solvents.

[1] = in 100 ml of solvent C8-C10 fatty acid dimethyl amide (1:1) (Example 11)
[2] = in 100 ml of solvent C8-C10 fatty acid methyl ester (Comparative Example C14)
[3] = in 100 ml of solvent C8 fatty acid dimethylamide (Example 9)
[4] = in 100 ml of solvent C10 fatty acid dimethyl amide (Example 10)
[5] = in 100 ml of solvent C18 fatty acid dimethyl amide (Comparative Example C13)

Cc1c(COC(=O)[C@@H]2[C@H](/C=C(\Cl)C(F)(F)F)C2(C)C)cccc1-c1ccccc1 (racemic) [Bifenthrin]
Solubility [1]: 34 percent by weight
Solubility [2]: 0 percent by weight
Solubility [3]: 30 percent by weight
Solubility [4]: 31 percent by weight
Solubility [5]: 10 percent by weight

CC(C)(C)C(O)(CCc1ccc(Cl)cc1)Cn1cncn1 (stereo not drawn) [Tebucanazole]
Solubility (in 100 ml of solvent C6 fatty acid dimethyl amide (Comparative Example C7)): 18 percent by weight
Solubility (in 100 ml of solvent C8-C10 fatty acid dimethyl amide (1:1) (Example 7)): 39 percent by weight
Solubility (in 100 ml of solvent C8-C10 fatty acid methyl ester (Comparative Example C9)): 9 percent by weight
Solubility (in 100 ml of solvent C8 fatty acid dimethylamide (Example 5)): 30 percent by weight
Solubility (in 100 ml of solvent C10 fatty acid dimethyl amide (Example 6)): 33 percent by weight
Solubility (in 100 ml of solvent C12 fatty acid dimethyl amide (Example 8)): 35 percent by weight
Solubility (in 100 ml of solvent C18 fatty acid dimethyl amide (Comparative Example C8)): 22 percent by weight
Solubility (in 100 ml of solvent Di-C8 alkyl carbonate (Comparative Example C11)): 2 percent by weight
Solubility (in 100 ml of solvent Di-C8 alkyl ether (Comparative Example C12)): 2 percent by weight
Solubility (in 100 ml of solvent Triacetin (Comparative Example C10)): 6 percent by weight

CCOc1cc(Oc2ccc(C(F)(F)F)cc2Cl)ccc1[N+](=O)[O-] [Oxyfluorfen]
Solubility (in 100 ml of solvent C6-C12 fatty alcohol + 6PO (Comparative Example C4)): 10 percent by weight
Solubility (in 100 ml of solvent C6 fatty acid dimethyl amide (Comparative Example C1)): 12 percent by weight
Solubility (in 100 ml of solvent C8-C10 fatty acid dimethyl amide (1:1) (Example 3)): 31 percent by weight
Solubility (in 100 ml of solvent C8-C10 fatty acid methyl ester (Comparative Example C3)): 3 percent by weight
Solubility (in 100 ml of solvent C8 fatty acid dimethylamide (Example 1)): 25 percent by weight
Solubility (in 100 ml of solvent C10 fatty acid dimethyl amide (Example 2)): 28 percent by weight
Solubility (in 100 ml of solvent C12-C15 benzoate (Comparative Example C5)): 7 percent by weight
Solubility (in 100 ml of solvent C12 fatty acid dimethyl amide (Example 4)): 27 percent by weight
Solubility (in 100 ml of solvent C18 fatty acid dimethyl amide (Comparative Example C2)): 19 percent by weight
Solubility (in 100 ml of solvent Di-C8 alkyl carbonate (Comparative Example C6)): 4 percent by weight

O=C(NC(=O)c1c(F)cccc1F)Nc1ccc(OC(F)(F)C(F)OC(F)(F)F)c(Cl)c1 (stereo not drawn) [Novaluron]
Solubility [1]: 32 percent by weight
Solubility [2]: 1 percent by weight
Solubility [3]: 28 percent by weight
Solubility [4]: 28 percent by weight
Solubility [5]: 8 percent by weight
